From patent EP0713875B1, “Sulfonamides” (F. Hoffmann-La Roche AG, priority 1994, dated 1996) come the findings set out here.

The test system of experiment [1] is isolierten Aortenringen der Ratte. Description: Inhibition of endothelin-induced contractions in isolated rat aortic rings. The class given is cell-based, Wistar-Kyoto-Ratten. The settings on record: for Kb: Rattus norvegicus, 10 min, endothelium-denuded thoracic aorta rings, 10 min incubation with test compound, cumulative doses of Endothelin-1, text calls the values pA2 = log(DR-1)-log(antagonist concentration), read-out: Dosisverhältnis (Rechtsverschiebung) (converted). The procedure:
II. Hemmung Endothelin-induzierter Kontraktionen an isolierten Aortenringen der Ratte
Aus der Thoraxaorta von erwachsenen Wistar-Kyoto-Ratten wurden Ringe von 5 mm Länge herausgeschnitten. Das Endothel wurde durch leichtes Reiben der Innenfläche entfernt. Jeder Ring wurde bei 37°C in 10 ml Krebs-Henseleit-Lösung unter Begasung mit 95% O2 und 5% CO2 in ein isoliertes Bad eingetaucht. Die isometrische Spannung der Ringe wurde gemessen. Die Ringe wurden auf eine Vorspannung von 3 g gedehnt. Nach 10 Minuten Inkubation mit der Testverbindung oder Vehikel wurden kumulative Dosen von Endothelin-1 zugegeben. Die Aktivität der Testverbindung wurde ermittelt durch die zu beobachtende Rechtsverschiebung der Dosis-Wirkungskurve von Endothelin-1 in gegenwart verschiedener Konzentrationen an Antagonist. Diese Rechtsverschiebung (oder auch "dose ratio", DR) entspricht dabei dem Quotienten aus den EC50-Werten von Endothelin-1 in Gegenwart und in Abwesenheit von Antagonist, wobei der EC50-Wert die für eine halbmaximale Kontraktion erforderliche Endothelin-Konzentration bezeichnet.
Aus der "dose ratio" DR wurde mittels eines Computerprogramms für jede einzelne Dosis-Wirkungskurve der entsprechende PA2-Wert nach untenstehender Gleichung berechnet, welcher ein Mass für die Aktivität der Testverbindung darstellt. pA2 = log(DR-1)-log(Antagonist-Konzentration) [formula]
Die EC50 von Endothelin in Abwesenheit von Testverbindungen ist 0,3 nM.
Die mit Verbindungen der Formel I so erhaltenen Werte für pA2 sind in Tabelle 2 angegeben. Tabelle 2

The next experiment has as its target T1, humanen ETA-Rezeptor (Homo sapiens, UniProt P25101).
T1 construct: made in house; host or cells: insect cells (baculovirus expression system); membrane preparation
T1 sequence (P25101 21-427): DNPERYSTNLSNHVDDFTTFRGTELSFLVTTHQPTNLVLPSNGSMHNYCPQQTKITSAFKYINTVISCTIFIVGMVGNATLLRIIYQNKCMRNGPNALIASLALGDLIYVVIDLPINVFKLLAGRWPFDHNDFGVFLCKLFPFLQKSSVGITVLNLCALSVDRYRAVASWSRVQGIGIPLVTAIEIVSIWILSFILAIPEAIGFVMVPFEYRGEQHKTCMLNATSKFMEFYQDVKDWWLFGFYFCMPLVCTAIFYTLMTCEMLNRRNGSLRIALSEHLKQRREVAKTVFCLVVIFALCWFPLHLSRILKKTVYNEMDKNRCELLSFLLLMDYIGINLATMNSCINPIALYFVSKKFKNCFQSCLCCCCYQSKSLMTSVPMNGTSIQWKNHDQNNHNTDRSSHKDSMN
The experiment is described as follows: Inhibition of endothelin binding at the recombinant ETA receptor (125I-endothelin, membranes of baculovirus-infected insect cells). The settings on record: concentration required to inhibit 50% of the specific binding of 125I-Endothelin; incubation 2 h at 20°C or 24 h at 4°C. As to the method:
I: Hemmung der Endothelin-Bindung am recombinanten ETA-Rezeptor
Baculovirus-infizierte Insektenzellen aus einem 23 l Fermenter werden 60 Stunden nach der Infektion abzentrifugiert (3 000 x g, 15 Minuten, 4°C), in Tris-Puffer (5 mM, pH 7.4, 1 mM MgCl2) resuspendiert und erneut zentrifugiert. Nach erneuter Resuspension und Zentrifugation werden die Zellen in 800 ml des gleichen Puffers suspendiert und bei -120°C eingefroren. Der Aufbruch der Zellen erfolgt beim Auftauen der Suspension in diesem hypotonen Puffergemisch. Nach wiederholtem Gefrier/Auftau-Zyklus wird die Suspension homogenisiert und zentrifugiert (25 000 x g, 15 Minuten, 4°C). Nach Suspension in Tris-Puffer (75 mM, pH 7.4, 25mM MgCl2, 250 mM Saccharose) werden 1 ml Aliquots (Proteingehalt ca. 3.5 mg/ml) bei -85°C aufbewahrt.
Für den Bindungs-Assay werden die eingefrorenen Membranpräparate aufgetaut und nach 10 Minuten Zentrifugieren mit 25000 g bei 20°C in Assay-Puffer (50 mM Tris-Puffer pH 7.4, enthaltend 25 mM MnCl2, 1 mM EDTA und 0,5% Rinderserumalbumin) resuspendiert. […] Die Inkubation wird 2 Stunden bei 20°C oder 24 Stunden bei 4°C durchgeführt. Die Trennung von freiem und Membran-gebundenen Radioliganden wird durch Filtration über Glasfaserfilter vorgenommen.

As usually defined, the IC50 is the concentration needed to halve the response being measured. As to `COc1ccccc1Oc1c(NS(=O)(=O)c2ccc(C)cn2)nc(N2CCOCC2)nc1OCCOC(=O)Nc1ccccn1` [Beispiel 34, Pyridin-2-yl-carbaminsäure 2-[5-(2-methoxy-phenoxy)-6-(5-methyl-pyridin-2-ylsulfonylamino)-2-morpholin-4-yl-pyrimidin-4-yloxy]-ethylester], in experiment [1], the Kb is 0.2 nM. For the same molecule, the IC50 on humanen ETA-Rezeptor came out at 0.3 nM.

In the case of `COc1ccccc1Oc1c(NS(=O)(=O)c2ccc(C(C)C)cn2)nc(N2CCOCC2)nc1OCCOC(=O)Nc1ccccn1` [Beispiel 51, Pyridin-2-ylcarbaminsäure 2-[6-(5-isopropylpyridin-2-ylsulfonylamino)-5-(2-methoxy-phenoxy)-2-morpholin-4-yl-pyrimidin-4-yloxy]ethylester], the Kb in experiment [1] is 0.631 nM. Moreover, the IC50 on humanen ETA-Rezeptor is 0.4 nM.

In general, EC50 refers to the midpoint of the concentration-response curve. As to Endothelin [reference compound], in experiment [1] (endothelin concentration required for half-maximal contraction, without antagonist, read-out: EC50 von Endothelin in Abwesenheit von Testverbindungen), the EC50 was 0.3 nM.
